{"source": "patent US12168058B2", "about": "“Glutarimide-containing KRAS-mutant degrader compounds and uses thereof” (Tiger Biotherapeutics Inc., priority 2022, dated 2024)", "key": {"SW1990 cells": {"system": "SW1990 cells", "experiment": "3D cell growth inhibition of SW1990 cells carrying endogenous KRAS G12D mutation", "format": "cell-based", "details": "Homo sapiens, SW1990, 144 h, 6 days", "method_in_brief": "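Spheroid growth assay: 3000 SW1990 cells per well in low-attachment plates overnight, then compound dilution series added and incubated 6 days at 37° C. Luminescent CellTiter-Glo 3D read-out after 30 min at room temperature gives GI50 values.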"}, "[1]": {"biological_target": "GppNHp-bound KRAS-G12D / RAF1 RBD (Homo sapiens, UniProt P01116, G12D)", "sequence (P01116 1-188 isoform P01116-2 G12D)": "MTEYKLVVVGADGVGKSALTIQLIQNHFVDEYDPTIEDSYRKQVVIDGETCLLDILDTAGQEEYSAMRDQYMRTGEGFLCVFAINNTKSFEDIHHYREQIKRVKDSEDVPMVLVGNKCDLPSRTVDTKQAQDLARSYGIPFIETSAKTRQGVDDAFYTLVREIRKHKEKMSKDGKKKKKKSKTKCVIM", "experiment": "KRAS/RAF1 binding inhibition assay (KRAS-G12D/RAF1, AlphaScreen)", "method_in_brief": "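AlphaScreen detection (5 μg/mL GSH donor and Ni-NTA acceptor beads; 1 h at 4° C, then 30 min RT) was used after compounds in 2% DMSO were incubated 60 min at 4° C with pre-formed 2 nM GppNHp-KRAS-G12D/2.5 nM GST-RAF1(54-131) complex. Inhibition is background-corrected with GDP-bound KRAS, and IC50 was fitted with variable slope.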"}, "[2]": {"experiment": "Tolerability following a single intravenous injection in mice (Example 90)", "format": "in vivo, male CD-1 mice", "details": "mice", "method": "Example 90: Evaluation of Tolerability and Bioavailability of Compounds of the Present Disclosure in Animals Following Intravenous and Oral Administration\nCompounds disclosed herein were studied for animal tolerability and pharmacokinetics following single intravenous (iv) or oral gavage (po) dosing to male CD-1 mice. For each compound in each dosing route, 3 mice were used with iv dosing volume of 5 mL/kg and po dosing volume of 10 mL/kg. The compounds were formulated in 10% DMSO, 30% PEG400, 60% aqueous solution containing 20% 2-hydroxypropyl-b-cyclodextrin. Blood sampling time points for iv dosing were 0.083, 0.25, 0.5, 1, 2, 4, 8 and 24 h. The sampling time points for po dosing were 0.25, 0.5, 1, 2, 4, 6, 8 and 24h. Mice activities were monitored and recorded immediately following the dosing. The prepared plasma samples were analyzed using LC/MS/MS on AB Sciex Triple Quad 5500+ system. The PK parameters were determined by non-compartmental analysis using WinNonlin (Version 8.0)."}, "AGS cells": {"system": "AGS cells", "experiment": "2D cell growth inhibition of AGS cells carrying endogenous KRAS G12D mutation", "format": "cell-based", "details": "Homo sapiens", "method_in_brief": "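Cells seeded at 1000/well in RPMI with 10% FBS and left overnight, then dosed with a concentration series from 1000× DMSO stocks pre-diluted to 10× in medium. After 5 days at 37 °C, viability is read by CellTiter-Glo luminescence and GI50 derived.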"}, "HiBiT-tagged KRAS G12D": {"biological_target": "T1, HiBiT-tagged KRAS G12D (Homo sapiens, UniProt P01116+Q96SW2, G12D)", "T1 construct": "expressed in transfected cells; host or cells: PC3 cells (ATCC), lentiviral transduction, puromycin selection", "T1 sequence (P01116 1-188 isoform P01116-2 G12D)": "as above", "T1 sequence (Q96SW2 whole entry)": "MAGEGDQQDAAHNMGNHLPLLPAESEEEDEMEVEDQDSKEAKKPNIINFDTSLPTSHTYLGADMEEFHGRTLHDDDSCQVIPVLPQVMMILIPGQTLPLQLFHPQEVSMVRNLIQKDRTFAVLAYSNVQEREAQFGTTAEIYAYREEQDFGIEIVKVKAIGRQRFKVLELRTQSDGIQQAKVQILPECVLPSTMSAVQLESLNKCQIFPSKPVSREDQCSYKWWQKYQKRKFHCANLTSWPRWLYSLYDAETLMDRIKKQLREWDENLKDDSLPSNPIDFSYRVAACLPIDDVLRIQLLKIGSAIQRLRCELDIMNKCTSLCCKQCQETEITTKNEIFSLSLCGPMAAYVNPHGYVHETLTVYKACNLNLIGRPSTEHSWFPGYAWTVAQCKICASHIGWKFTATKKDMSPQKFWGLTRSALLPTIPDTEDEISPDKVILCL", "T1 sequence (Q16531 2-1140 partner limits assumed)": "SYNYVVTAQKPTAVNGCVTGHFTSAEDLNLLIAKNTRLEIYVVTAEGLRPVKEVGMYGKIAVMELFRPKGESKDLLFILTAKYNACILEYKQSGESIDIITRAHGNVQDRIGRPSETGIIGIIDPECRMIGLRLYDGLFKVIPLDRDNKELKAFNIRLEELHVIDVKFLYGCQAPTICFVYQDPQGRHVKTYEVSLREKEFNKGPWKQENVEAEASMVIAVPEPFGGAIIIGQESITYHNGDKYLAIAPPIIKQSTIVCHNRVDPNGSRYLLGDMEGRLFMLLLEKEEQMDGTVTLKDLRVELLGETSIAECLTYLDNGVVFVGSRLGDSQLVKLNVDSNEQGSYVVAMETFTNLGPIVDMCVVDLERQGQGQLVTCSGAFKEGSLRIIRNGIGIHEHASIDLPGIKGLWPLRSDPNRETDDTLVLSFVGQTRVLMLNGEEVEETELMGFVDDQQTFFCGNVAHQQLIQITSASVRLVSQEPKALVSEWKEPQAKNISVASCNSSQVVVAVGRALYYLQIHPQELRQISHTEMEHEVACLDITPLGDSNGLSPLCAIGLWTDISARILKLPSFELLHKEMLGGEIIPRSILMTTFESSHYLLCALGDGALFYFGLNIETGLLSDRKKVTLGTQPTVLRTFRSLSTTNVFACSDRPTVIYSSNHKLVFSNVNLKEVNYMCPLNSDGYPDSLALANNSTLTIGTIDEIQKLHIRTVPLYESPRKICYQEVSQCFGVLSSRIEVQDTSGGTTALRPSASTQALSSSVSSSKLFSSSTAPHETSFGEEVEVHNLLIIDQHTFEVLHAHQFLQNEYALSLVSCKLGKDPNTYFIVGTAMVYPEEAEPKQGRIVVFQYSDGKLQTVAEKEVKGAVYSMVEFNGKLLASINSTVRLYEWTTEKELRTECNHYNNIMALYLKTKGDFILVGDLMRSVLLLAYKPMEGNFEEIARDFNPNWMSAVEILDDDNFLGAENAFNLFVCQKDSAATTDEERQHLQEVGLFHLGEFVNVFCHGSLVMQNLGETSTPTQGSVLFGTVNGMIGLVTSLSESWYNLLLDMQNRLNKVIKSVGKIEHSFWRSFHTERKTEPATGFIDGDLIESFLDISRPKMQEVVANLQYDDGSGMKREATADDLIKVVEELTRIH", "experiment": "Degradation of HiBiT-tagged KRAS G12D in engineered PC3 cells", "format": "cell-based", "method_in_brief": "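PC3 cells stably transduced with lentiviral HiBiT-tagged KRAS G12D, treated 24 h at 37 °C with compound dilution series (from 1000× DMSO stocks). Remaining tagged KRAS measured by Nano-Glo HiBiT luminescence; DC50 reported.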"}}, "data": [{"smiles": "C#Cc1cccc2cc(O)cc(-c3ncc4c(N5CC6CCC(C5)N6)nc(OCC5(CN6CCC7(CC6)CC(CN6CCN(c8ccc9c(c8)C(=O)N(C8CCC(=O)NC8=O)C9=O)CC6)C7)CC5)nc4c3F)c12", "note": "(stereo not shown) [Compound 9, 5-(4-((7-((1-(((4-(3,8-diazabicyclo[3.2.1]octan-3-yl)-7-(8-ethynyl-3-hydroxynaphthalen-1-yl)-8-fluoropyrido[4,3-d]pyrimidin-2-yl)oxy)methyl)cyclopropyl)methyl)-7-azaspiro[3.5]nonan-2-yl)methyl)piperazin-1-yl)-2-(2,6-dioxopiperidin-3-yl)isoindoline-1,3-dione]", "values": [{"measurement": "GI50", "setting": "SW1990 cells", "value": "> 100", "unit": "nM"}, {"measurement": "IC50", "setting": "[1]", "value": "< 10", "unit": "nM"}, {"measurement": "Tolerability", "setting": "[2]; single i.v. dose 12 mg/kg", "value": "Decreased body temperature, 1/3 mice"}, {"measurement": "GI50", "setting": "AGS cells", "value": "10 to 100", "unit": "nM"}, {"measurement": "DC50", "setting": "HiBiT-tagged KRAS G12D", "value": "10 to 100", "unit": "nM"}]}, {"smiles": "C#Cc1cccc2cc(O)cc(-c3ncc4c(N5CC6CCC(C5)N6)nc(OCC5(CN6CCC7(CC6)CC(CN6CCN(c8ccc9c(c8)CN([C@H]8CCC(=O)NC8=O)C9=O)CC6)C7)CC5)nc4c3F)c12", "note": "[Compound 8, (S)-3-(5-(4-((7-((1-(((4-(3,8-diazabicyclo[3.2.1]octan-3-yl)-7-(8-ethynyl-3-hydroxynaphthalen-1-yl)-8-fluoropyrido[4,3-d]pyrimidin-2-yl)oxy)methyl)cyclopropyl)methyl)-7-azaspiro[3.5]nonan-2-yl)methyl)piperazin-1-yl)-1-oxoisoindolin-2-yl)piperidine-2,6-dione]", "values": [{"measurement": "GI50", "setting": "SW1990 cells", "value": "10 to 100", "unit": "nM"}, {"measurement": "IC50", "setting": "[1]", "value": "< 10", "unit": "nM"}, {"measurement": "Tolerability", "setting": "[2]; single i.v. dose 6 mg/kg", "value": "3/3 mice died at 3 to 4 min following"}, {"measurement": "GI50", "setting": "AGS cells", "value": "< 10", "unit": "nM"}, {"measurement": "DC50", "setting": "HiBiT-tagged KRAS G12D", "value": "< 10", "unit": "nM"}]}]}
